Reference: ChEMBL document CHEMBL4229500, “Iodine-mediated cyclization of cannabigerol (CBG) expands the cannabinoid biological and chemical space” (Bioorg Med Chem, 2018)

Legend:
Assay type in all cases: cell-based; call rule not given here
[1] = molecular target: T1, Transient receptor potential cation channel, subfamily V, member 3 (Rattus norvegicus) (UniProt E9PU00); assay: Agonist activity at […] expressed in HEK293 cells assessed as increase in intracellular calcium level by Fluo-4-AM dye based fluorescence assay relative to ionomycin
T1 sequence (whole entry): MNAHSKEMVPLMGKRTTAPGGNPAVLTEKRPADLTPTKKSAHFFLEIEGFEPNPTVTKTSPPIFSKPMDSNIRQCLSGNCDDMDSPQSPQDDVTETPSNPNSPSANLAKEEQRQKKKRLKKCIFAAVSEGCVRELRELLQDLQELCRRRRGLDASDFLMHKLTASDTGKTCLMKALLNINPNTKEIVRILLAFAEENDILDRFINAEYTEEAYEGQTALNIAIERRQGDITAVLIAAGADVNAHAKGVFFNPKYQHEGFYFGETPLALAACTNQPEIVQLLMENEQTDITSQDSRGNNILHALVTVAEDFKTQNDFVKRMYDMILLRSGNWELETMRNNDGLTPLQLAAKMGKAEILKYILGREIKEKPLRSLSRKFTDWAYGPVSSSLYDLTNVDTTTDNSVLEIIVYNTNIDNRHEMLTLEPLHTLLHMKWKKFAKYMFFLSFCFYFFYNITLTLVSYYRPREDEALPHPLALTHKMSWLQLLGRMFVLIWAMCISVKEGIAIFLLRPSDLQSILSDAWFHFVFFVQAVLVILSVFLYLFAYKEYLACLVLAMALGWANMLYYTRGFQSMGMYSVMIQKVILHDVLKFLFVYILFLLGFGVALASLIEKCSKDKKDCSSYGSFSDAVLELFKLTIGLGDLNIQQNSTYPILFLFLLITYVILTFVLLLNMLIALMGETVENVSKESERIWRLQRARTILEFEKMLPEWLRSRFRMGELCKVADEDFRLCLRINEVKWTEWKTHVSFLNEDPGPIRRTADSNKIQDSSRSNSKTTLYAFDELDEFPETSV

[2] = molecular target: Transient receptor potential cation channel subfamily A member 1 (Rattus norvegicus) (UniProt Q6RI86); assay: Agonist activity at rat TRPA1 expressed in HEK293 cells assessed as increase in intracellular calcium level by fluo-4-AM dye based fluorescence assay relative to AITC
Sequence of Transient receptor potential cation channel subfamily A member 1 (Rattus norvegicus) (Q6RI86 whole entry): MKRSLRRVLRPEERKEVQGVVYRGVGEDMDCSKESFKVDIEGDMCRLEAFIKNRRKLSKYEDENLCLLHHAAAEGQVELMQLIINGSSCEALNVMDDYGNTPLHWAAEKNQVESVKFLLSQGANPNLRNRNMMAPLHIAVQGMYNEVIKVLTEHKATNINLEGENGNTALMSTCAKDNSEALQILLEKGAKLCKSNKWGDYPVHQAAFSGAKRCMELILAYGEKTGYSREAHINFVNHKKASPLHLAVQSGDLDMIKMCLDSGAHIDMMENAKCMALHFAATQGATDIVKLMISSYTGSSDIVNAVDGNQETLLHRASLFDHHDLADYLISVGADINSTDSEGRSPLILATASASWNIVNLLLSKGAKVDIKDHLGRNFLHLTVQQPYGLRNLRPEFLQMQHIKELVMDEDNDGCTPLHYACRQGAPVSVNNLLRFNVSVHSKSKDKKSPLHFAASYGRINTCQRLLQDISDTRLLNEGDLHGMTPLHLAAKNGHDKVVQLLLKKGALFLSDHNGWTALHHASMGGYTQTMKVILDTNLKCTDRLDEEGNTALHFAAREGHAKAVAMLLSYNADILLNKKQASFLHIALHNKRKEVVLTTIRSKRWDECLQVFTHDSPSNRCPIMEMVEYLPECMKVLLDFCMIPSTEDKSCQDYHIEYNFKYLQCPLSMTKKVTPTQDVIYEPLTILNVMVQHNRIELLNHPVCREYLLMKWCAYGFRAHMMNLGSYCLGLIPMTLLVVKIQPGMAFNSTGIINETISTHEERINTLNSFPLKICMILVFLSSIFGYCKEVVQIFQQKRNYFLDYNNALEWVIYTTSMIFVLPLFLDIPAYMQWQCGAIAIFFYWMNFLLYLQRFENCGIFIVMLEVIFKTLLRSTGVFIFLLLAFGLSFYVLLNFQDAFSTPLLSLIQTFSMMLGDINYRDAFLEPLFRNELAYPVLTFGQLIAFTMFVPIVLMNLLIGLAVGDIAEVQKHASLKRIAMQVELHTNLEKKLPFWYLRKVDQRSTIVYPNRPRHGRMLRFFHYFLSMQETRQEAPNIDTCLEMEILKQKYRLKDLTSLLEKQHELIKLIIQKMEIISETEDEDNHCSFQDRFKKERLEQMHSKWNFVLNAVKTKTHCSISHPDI

[3] = molecular target: Transient receptor potential cation channel subfamily V member 4 (Rattus norvegicus) (UniProt Q9ERZ8); assay: Agonist activity at rat TRPV4 expressed in HEK293 cells assessed as increase in intracellular calcium level by Fluo-4-AM dye based fluorescence assay relative to ionomycin
Sequence of Transient receptor potential cation channel subfamily V member 4 (Rattus norvegicus) (Q9ERZ8 whole entry): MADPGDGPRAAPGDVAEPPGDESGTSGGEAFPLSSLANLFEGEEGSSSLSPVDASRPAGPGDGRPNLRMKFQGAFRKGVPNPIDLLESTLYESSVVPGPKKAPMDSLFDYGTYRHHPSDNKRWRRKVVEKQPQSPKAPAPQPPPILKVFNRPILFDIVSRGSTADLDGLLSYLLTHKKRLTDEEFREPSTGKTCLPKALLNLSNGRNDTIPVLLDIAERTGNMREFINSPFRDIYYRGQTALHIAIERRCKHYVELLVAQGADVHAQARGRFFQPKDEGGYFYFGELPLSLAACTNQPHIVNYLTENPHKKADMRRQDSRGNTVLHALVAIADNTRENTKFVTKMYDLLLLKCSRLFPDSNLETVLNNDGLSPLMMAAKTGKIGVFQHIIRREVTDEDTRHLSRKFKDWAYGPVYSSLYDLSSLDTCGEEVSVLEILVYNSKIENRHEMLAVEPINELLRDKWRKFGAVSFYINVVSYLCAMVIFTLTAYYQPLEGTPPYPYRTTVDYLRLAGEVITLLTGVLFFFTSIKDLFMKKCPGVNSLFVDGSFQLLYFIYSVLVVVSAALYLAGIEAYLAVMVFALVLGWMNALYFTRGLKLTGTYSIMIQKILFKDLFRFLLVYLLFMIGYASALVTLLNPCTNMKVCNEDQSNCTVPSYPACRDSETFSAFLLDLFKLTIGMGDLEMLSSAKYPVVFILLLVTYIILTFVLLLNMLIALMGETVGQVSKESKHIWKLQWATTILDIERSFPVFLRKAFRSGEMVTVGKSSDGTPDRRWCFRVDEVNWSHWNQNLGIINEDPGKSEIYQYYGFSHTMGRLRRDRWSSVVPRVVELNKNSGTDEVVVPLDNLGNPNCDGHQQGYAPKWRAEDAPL

[4] = molecular target: T2, Transient receptor potential cation channel subfamily V member 1 (Homo sapiens, UniProt Q8NER1); assay: Agonist activity at human TRPV1 expressed in HEK293 cells assessed as increase in intracellular calcium level by Fluo-4-AM dye based fluorescence assay
T2 sequence (Q8NER1 whole entry): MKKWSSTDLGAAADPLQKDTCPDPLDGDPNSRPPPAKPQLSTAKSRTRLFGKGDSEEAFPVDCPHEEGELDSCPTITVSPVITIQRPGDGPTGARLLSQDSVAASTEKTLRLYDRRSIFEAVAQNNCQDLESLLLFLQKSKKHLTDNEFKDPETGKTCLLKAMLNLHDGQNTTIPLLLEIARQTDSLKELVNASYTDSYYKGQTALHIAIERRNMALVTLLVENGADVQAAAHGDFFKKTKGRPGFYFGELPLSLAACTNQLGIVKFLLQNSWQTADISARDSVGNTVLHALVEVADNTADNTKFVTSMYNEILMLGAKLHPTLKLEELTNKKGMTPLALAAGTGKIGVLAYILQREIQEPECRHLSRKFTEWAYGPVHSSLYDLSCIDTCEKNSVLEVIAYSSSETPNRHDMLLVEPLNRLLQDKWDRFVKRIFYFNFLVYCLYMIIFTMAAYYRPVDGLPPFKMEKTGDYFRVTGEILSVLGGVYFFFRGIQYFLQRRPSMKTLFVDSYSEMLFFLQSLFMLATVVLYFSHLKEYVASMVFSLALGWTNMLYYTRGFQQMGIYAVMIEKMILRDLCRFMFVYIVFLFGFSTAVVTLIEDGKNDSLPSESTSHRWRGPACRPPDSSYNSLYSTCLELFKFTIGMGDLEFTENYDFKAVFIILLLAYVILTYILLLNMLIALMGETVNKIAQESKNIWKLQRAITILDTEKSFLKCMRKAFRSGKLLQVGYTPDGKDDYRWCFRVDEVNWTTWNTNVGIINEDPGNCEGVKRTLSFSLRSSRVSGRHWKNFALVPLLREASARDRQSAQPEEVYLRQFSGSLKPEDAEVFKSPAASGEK

[5] = molecular target: T3, Transient receptor potential cation channel subfamily V member 2 (Rattus norvegicus, UniProt Q9WUD2); assay: Agonist activity at rat TRPV2 expressed in HEK293 cells assessed as increase in intracellular calcium level by Fluo-4-AM dye based fluorescence assay
T3 sequence (Q9WUD2 whole entry): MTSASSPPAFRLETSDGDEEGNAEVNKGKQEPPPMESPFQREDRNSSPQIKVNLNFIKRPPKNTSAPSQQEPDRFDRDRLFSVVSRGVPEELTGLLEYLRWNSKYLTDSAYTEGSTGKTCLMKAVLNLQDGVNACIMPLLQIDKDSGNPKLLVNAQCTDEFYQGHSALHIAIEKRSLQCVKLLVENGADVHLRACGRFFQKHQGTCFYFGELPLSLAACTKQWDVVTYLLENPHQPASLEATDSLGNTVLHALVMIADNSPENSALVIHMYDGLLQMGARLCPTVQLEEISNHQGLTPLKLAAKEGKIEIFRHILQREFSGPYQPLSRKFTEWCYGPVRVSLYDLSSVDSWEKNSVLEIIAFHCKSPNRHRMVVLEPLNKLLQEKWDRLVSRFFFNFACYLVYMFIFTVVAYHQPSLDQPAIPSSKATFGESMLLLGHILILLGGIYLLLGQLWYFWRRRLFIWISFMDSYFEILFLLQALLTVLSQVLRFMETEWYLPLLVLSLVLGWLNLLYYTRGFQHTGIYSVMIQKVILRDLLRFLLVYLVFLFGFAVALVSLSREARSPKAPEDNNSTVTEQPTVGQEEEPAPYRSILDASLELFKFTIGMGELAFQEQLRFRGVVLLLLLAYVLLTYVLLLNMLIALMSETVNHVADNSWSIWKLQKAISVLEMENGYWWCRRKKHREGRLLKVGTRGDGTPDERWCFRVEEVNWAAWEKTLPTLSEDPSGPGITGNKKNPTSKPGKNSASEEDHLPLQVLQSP

[6] = molecular target: T4, Transient receptor potential cation channel subfamily V member 2 (Rattus norvegicus) (UniProt Q9WUD2); assay: Agonist activity at rat TRPV2 expressed in HEK293 cells assessed as increase in intracellular calcium level by Fluo-4-AM dye based fluorescence assay relative to ionomycin
T4 sequence (whole entry): T3 sequence (Q9WUD2 whole entry)

[7] = molecular target: T5, Transient receptor potential cation channel subfamily A member 1 (Rattus norvegicus, UniProt Q6RI86); assay: Antagonist activity at rat TRPA1 expressed in HEK293 cells assessed as inhibition of AITC-induced increase in intracellular calcium level pretreated for 5 mins followed by AITC addition by fluo-4-AM dye based fluorescence assay
T5 sequence (Q6RI86 whole entry): as the sequence (Q6RI86 whole entry) above

[8] = molecular target: T6, Transient receptor potential cation channel subfamily V member 4 (Rattus norvegicus, UniProt Q9ERZ8); assay: Agonist activity at rat TRPV4 expressed in HEK293 cells assessed as increase in intracellular calcium level by Fluo-4-AM dye based fluorescence assay
T6 sequence (Q9ERZ8 whole entry): as the sequence (Q9ERZ8 whole entry) above

[9] = molecular target: T7, Transient receptor potential cation channel, subfamily V, member 3 (Rattus norvegicus, UniProt E9PU00); assay: Agonist activity at […] expressed in HEK293 cells assessed as increase in intracellular calcium level by Fluo-4-AM dye based fluorescence assay
T7 sequence (E9PU00 whole entry): T1 sequence (whole entry)

[10] = molecular target: T6, Transient receptor potential cation channel subfamily V member 4; assay: Antagonist activity at […] expressed in HEK293 cells assessed as inhibition of GSK1016790A-induced increase in intracellular calcium level pretreated for 5 mins followed by GSK1016790A addition by Fluo-4-AM dye based fluorescence assay
[11] = molecular target: T2, Transient receptor potential cation channel subfamily V member 1; assay: Antagonist activity at human TRPV1 expressed in HEK293 cells assessed as inhibition of capsaicin-induced increase in intracellular calcium level pretreated for 5 mins followed by capsaicin addition by Fluo-4-AM dye based fluorescence assay
[12] = molecular target: Transient receptor potential cation channel subfamily M member 8 (Rattus norvegicus, UniProt Q8R455); assay: Antagonist activity at rat TRPM8 expressed in HEK293 cells assessed as inhibition of icilin-induced increase in intracellular calcium level pretreated for 5 mins followed by icilin addition by Fluo-4-AM dye based fluorescence assay
Sequence of Transient receptor potential cation channel subfamily M member 8 (Q8R455 whole entry): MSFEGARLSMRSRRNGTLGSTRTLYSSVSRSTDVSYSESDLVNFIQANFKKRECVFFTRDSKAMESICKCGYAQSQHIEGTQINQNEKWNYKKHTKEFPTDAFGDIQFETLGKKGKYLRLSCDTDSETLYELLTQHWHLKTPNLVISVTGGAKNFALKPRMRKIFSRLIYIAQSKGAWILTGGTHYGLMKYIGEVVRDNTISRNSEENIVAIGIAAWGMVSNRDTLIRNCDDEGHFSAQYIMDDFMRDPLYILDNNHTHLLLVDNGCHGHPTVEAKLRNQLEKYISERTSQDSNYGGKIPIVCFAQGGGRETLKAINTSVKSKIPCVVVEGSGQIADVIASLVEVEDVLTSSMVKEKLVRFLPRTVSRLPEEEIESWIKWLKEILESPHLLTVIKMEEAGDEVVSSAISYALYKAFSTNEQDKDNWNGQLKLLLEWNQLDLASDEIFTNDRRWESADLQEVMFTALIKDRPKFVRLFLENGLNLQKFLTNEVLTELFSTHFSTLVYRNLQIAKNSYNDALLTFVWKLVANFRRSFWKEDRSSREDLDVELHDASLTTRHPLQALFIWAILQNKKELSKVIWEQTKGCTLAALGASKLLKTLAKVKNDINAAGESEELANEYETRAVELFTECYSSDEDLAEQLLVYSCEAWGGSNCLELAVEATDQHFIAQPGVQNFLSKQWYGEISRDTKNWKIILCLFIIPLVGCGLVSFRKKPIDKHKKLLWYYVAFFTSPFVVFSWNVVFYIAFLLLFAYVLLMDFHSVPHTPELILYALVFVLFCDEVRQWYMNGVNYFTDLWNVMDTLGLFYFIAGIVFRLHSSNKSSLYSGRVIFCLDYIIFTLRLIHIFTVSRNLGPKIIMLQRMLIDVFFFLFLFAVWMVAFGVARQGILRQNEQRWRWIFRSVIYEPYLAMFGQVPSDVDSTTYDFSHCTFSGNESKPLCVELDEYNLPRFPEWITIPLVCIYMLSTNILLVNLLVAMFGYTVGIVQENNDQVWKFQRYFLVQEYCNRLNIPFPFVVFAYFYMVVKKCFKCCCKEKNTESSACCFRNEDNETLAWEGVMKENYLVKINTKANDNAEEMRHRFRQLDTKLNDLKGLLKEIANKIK

[13] = molecular target: T3, Transient receptor potential cation channel subfamily V member 2; assay: Antagonist activity at rat TRPV2 expressed in HEK293 cells assessed as inhibition of LPC-induced increase in intracellular calcium level pretreated for 5 mins followed by LPC addition by Fluo-4-AM dye based fluorescence assay
[14] = molecular target: T7, Transient receptor potential cation channel, subfamily V, member 3; assay: Antagonist activity at […] expressed in HEK293 cells assessed as inhibition of thymol-induced increase in intracellular calcium level pretreated for 5 mins followed by thymol addition by Fluo-4-AM dye based fluorescence assay
[15] = molecular target: T2, Transient receptor potential cation channel subfamily V member 1; assay: Agonist activity at human TRPV1 expressed in HEK293 cells assessed as increase in intracellular calcium level by Fluo-4-AM dye based fluorescence assay relative to ionomycin
[16] = molecular target: T5, Transient receptor potential cation channel subfamily A member 1; assay: Agonist activity at rat TRPA1 expressed in HEK293 cells assessed as increase in intracellular calcium level by fluo-4-AM dye based fluorescence assay

Row | Structure (SMILES) | EC50 ([4]; read-out: EC50) [µM] | EC50 ([9]; hek293) | EC50 ([8]; read-out: EC50) [µM] | Efficacy [1] [%] | Efficacy [2] [%] | Efficacy [3] [%] | EC50 ([5]; read-out: EC50) [µM] | Efficacy [6] [%] | IC50 [7] [µM] | EC50 ([8]; hek293) | IC50 [10] [µM] | IC50 [11] [µM] | IC50 [12] [µM] | IC50 [13] [µM] | IC50 [14] [µM] | Efficacy [15] [%] | EC50 [16] [µM] | EC50 ([4]; hek293) | EC50 ([5]; hek293) | EC50 ([9]; read-out: EC50) [µM]
1 | CCCCCc1cc(O)c2c(c1)OC(C)(CCCC(C)(C)c1ccc(C)cc1)CC2 (stereo unspecified) | – | Not Active | 18 | < 10 | 120 | 18 | – | < 10 | 0.32 | – | > 100 | > 50 | > 100 | 4.5 | > 50 | < 10 | 0.35 | Not Active | Not Active | –
2 | CCCCCc1cc(O)c2c(c1)O[C@]1(C)CC[C@@H](I)C(C)(C)[C@H]1C2 | – | Not Active | – | < 10 | 90 | < 10 | – | < 10 | 4.8 | Not Active | > 100 | > 100 | 7.2 | 2.3 | > 50 | < 10 | 2 | Not Active | Not Active | –
3 | CCCCCc1cc(O)c2c(c1)O[C@]1(C)CCCC(C)(C)[C@H]1C2 | – | Not Active | – | < 10 | 95.2 | < 10 | 8.4 | 41.3 | 0.26 | Not Active | > 100 | > 100 | > 100 | > 100 | > 50 | < 10 | 0.23 | Not Active | – | –
4 | CCCCCc1cc(O)c2c(c1)O[C@@]1(C)CCCC(C)(C)[C@H]1C2 | 2.6 | – | – | 17.5 | 98.5 | < 10 | 5.8 | 31.7 | 0.27 | Not Active | 3.9 | 5.9 | 17.1 | > 100 | 8 | 48.5 | 0.29 | – | – | 6.7

Now from value to compound, other results behind:

Row | EC50 ([4]; read-out: EC50) [µM] | EC50 ([9]; hek293) | EC50 ([8]; read-out: EC50) [µM] | Structure (SMILES) | Efficacy [1] [%] | Efficacy [2] [%] | Efficacy [3] [%] | EC50 ([5]; read-out: EC50) [µM] | Efficacy [6] [%] | IC50 [7] [µM] | EC50 ([8]; hek293) | IC50 [10] [µM] | IC50 [11] [µM] | IC50 [12] [µM] | IC50 [13] [µM] | IC50 [14] [µM] | Efficacy [15] [%] | EC50 [16] [µM] | EC50 ([4]; hek293) | EC50 ([5]; hek293) | EC50 ([9]; read-out: EC50) [µM]
5 | 4.9 | Not Active | – | CCCCCc1cc(O)c2c(c1)O[C@]1(C2)[C@H](C)CCCC1(C)C | < 10 | 102 | < 10 | 6.4 | 27.5 | 1.7 | Not Active | 39.7 | 37 | > 50 | > 50 | > 50 | 32.3 | 1.3 | – | – | –
6 | 1.8 | Not Active | 3.3 | CCCCCc1cc(O)c2c(c1)O[C@]1(C2)[C@@H](C)CCCC1(C)C | < 10 | 108 | 13.9 | 4.7 | 37.7 | 0.45 | – | 4.3 | 7.1 | > 50 | 13.7 | 12.8 | 43.9 | 0.49 | – | – | –
